Test system: 874868-142-R-J2-PDC complex spheroids, growth % test/control
Assay: Anticancer human tumor 874868-142-R-J2-PDC patient-derived head and neck squamous carcinoma cell line growth inhibition [CLK]
Settings: for IC50: curve of first compound; for viability, T/C: stronger effect = lower value
Source text: A high-throughput screen of multi-cell type tumor spheroids was designed to identify active combinations of […] and targeted small molecules. Complex spheroids include a stromal component modeled by human endothelial cells (HUVEC) and fibroblasts modeled by human mesenchymal stem cells (MSCs). The concentration ranges selected for each drug and investigational agent were based upon clinically achievable concentrations if the clinical Cmax of the agent was known.
Compounds. The drugs and investigational agents: cirtuvivint (SM08502; NSC835563), CC-671 (NSC850746), vemurafenib (NSC761431), tapotoclax (NSC804041), sotorasib (NSC818433), adagrasib (NSC831453), MRTX-1133 (NSC836407), BAY2416964 (NSC825713), copanlisib (NSC816437), inavolisib (NSC800729), abemaciclib (NSC768073), osimertinib (NSC779217), entinostat (NSC756642), eltanexor (KPT-8602, NSC794443), venetoclax (NSC766270), ceralasertib (NSC777638), bortezomib (NSC756655), olaparib (NSC753686), talazoparib (NSC767125), alisertib (NSC759677), peposertib (NSC802822), gemcitabine (NSC613327), 5-fluorouracil (NSC19893), SN-38 (NSC673596), oxaliplatin (NSC266046), paclitaxel (NSC125973), and doxorubicin (NSC123127), were obtained from the National Cancer Institute (NCI) Developmental Therapeutics Program Chemical Repository. The FDA-approved anticancer drug set is available from the Developmental Therapeutics Program at https://dtp.cancer.gov/organization/dscb/obtaining/available plates.htm. […] The stock solutions were prepared in dimethyl sulfoxide (DMSO, Sigma-Aldrich, St. Louis, MO, cat. D2650), except for the platinum complexes which were prepared in saline (Quality Biological, Gaithersburg, MD, cat. 114-055-101), at 800-fold the tested concentration and stored at -70 degrees C prior to their use. All drugs and investigational agents were tested over a range starting from a high concentration at or near the clinical Cmax and decreasing in half-log increments. If the clinical Cmax for an agent had not been determined, the highest concentration tested was 10 microM.
Cell Culture. All cells were maintained in an incubator at 37 degrees C and 5% CO2 with 95% humidity. The PDC lines were cultured according to standard operating procedures established by the NCI PDMR. Briefly, all PDCs were thawed and cultured in Matrigel-coated flasks prepared with a working solution of 1X Ham's F-12 nutrient mix, without supplementation (Invitrogen, Waltham, MA, cat. 11765054), 100 U/mL penicillin-streptomycin (Invitrogen, cat. 15140122), and 2.5% Matrigel (Corning Inc., Corning, NY, cat. 354248) for the first three passages. The 947758-054-R-J2-PDC line was cultured in 6B/Colon 1A media, which includes advanced DMEM/F-12 (Thermo Fisher Scientific, cat. 12634028), 10 mM HEPES (Thermo Fisher Scientific, cat. 15630080), 1X GlutaMAX supplement (Thermo Fisher Scientific, cat. 35050061), 0.1 mg/mL primocin (InvivoGen, cat. ant-pm-2), 10% defined fetal bovine serum, heat inactivated (HyClone Laboratories Inc., cat. SH30070.03HI), 1.25 mM N-Acetyl-L-cysteine (Sigma-Aldrich, cat. A9165), 10 mM nicotinamide (Sigma-Aldrich, cat. N0636), 1X B-27 supplement (Thermo Fisher Scientific, cat. 17504044), 1X N-2 supplement (Thermo Fisher Scientific, cat. 17502048), and 10 microM Y-27632 dihydrochloride (Tocris Bioscience, cat. 1254). The 876862-298-R-J1-PDC was cultured in 6E media, which includes all 6B/Colon 1A media components plus 50% L-WRN conditioned media (ATCC, cat. CRL-3276), 50 ng/mL recombinant human EGF recombinant protein (hEGF; Thermo Fisher Scientific, cat. PHG0311), 10 ng/mL recombinant human fibroblast growth factor 10 (hGFG-10; PeproTech, cat. 100-26), 1 ng/mL recombinant human fibroblast growth factor 2 (hFGF-2; PeproTech, cat. 100-18B), and 1 µM prostaglandin E2 (PGE2; Tocris, cat. 2296). The 227483-062-R1-J1-PDC line was cultured in Panc media, containing all 6E components except hFGF-2, with the addition of 500 nM SB-431542 (Selleckchem, cat. S1067) and 10 nM gastrin (Tocris, cat. 3006). […]

[1] = second compound 0.0316 µM, first compound 0.0316 µM
[2] = second compound 0.0316 µM, first compound 0.1 µM
[3] = second compound 0.0316 µM, first compound 0.316 µM
[4] = second compound 0.0316 µM, first compound 1 µM
[5] = second compound 0.1 µM, first compound 0.0316 µM
[6] = second compound 0.1 µM, first compound 0.1 µM
[7] = second compound 0.1 µM, first compound 0.316 µM
[8] = second compound 0.1 µM, first compound 1 µM
[9] = second compound 0.316 µM, first compound 0.0316 µM
[10] = second compound 0.316 µM, first compound 0.1 µM
[11] = second compound 0.316 µM, first compound 0.316 µM
[12] = second compound 0.316 µM, first compound 1 µM
[13] = second compound 1 µM, first compound 0.0316 µM
[14] = second compound 1 µM, first compound 0.1 µM
[15] = second compound 1 µM, first compound 0.316 µM
[16] = second compound 1 µM, first compound 1 µM
[17] = second compound 3.16 µM, first compound 0.0316 µM
[18] = second compound 3.16 µM, first compound 0.1 µM
[19] = second compound 3.16 µM, first compound 0.316 µM
[20] = second compound 3.16 µM, first compound 1 µM
[21] = second compound 10 µM, first compound 0.0316 µM
[22] = second compound 10 µM, first compound 0.1 µM
[23] = second compound 10 µM, first compound 0.316 µM
[24] = second compound 10 µM, first compound 1 µM
[25] = second compound 0.0316 µM, first compound 0.00316 µM
[26] = second compound 0.0316 µM, first compound 0.01 µM
[27] = second compound 0.1 µM, first compound 0.00316 µM
[28] = second compound 0.1 µM, first compound 0.01 µM
[29] = second compound 0.316 µM, first compound 0.00316 µM
[30] = second compound 0.316 µM, first compound 0.01 µM
[31] = second compound 1 µM, first compound 0.00316 µM
[32] = second compound 1 µM, first compound 0.01 µM
[33] = second compound 3.16 µM, first compound 0.00316 µM
[34] = second compound 3.16 µM, first compound 0.01 µM
[35] = second compound 10 µM, first compound 0.00316 µM
[36] = second compound 10 µM, first compound 0.01 µM
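Also: spheroids exposed to the compounds for 7 days.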

CC(Nc1ccc2c(c1)OCCn1cc(N3C(=O)OCC3C(F)F)nc1-2)C(N)=O (stereo unspecified) + CN1CCN(c2cc(C(=O)Nc3cc4cc(-c5cnn(C)c5)ccc4cn3)ccn2)CC1 showed an IC50 (second compound 0.0316 µM) of 89.4 nM, an IC50 (second compound 0.1 µM) of 75.5 nM and an IC50 (second compound 0.316 µM) of under 31.6 nM. The IC50 (second compound 1 µM) was under 31.6 nM, the IC50 (second compound 3.16 µM) was under 31.6 nM and the IC50 (second compound 10 µM) was under 31.6 nM. It also gave a viability, T/C [1] of 69.5%, a viability, T/C [2] of 46.7% and a viability, T/C [3] of 33.7%. The viability, T/C [4] was 22.6%, the viability, T/C (second compound 0.0316 µM, first compound 3.16 µM) was 13.8% and the viability, T/C (second compound 0.0316 µM, first compound 10 µM) was 12.3%. The viability, T/C [5] was 78.7%, the viability, T/C [6] was 36.1% and the viability, T/C [7] was 30.2%. For the same compound, the viability, T/C [8] was 20.7%, the viability, T/C (second compound 0.1 µM, first compound 3.16 µM) was 12.8% and the viability, T/C (second compound 0.1 µM, first compound 10 µM) was 12%. It also gave a viability, T/C [9] of 19.3%, a viability, T/C [10] of 15.2% and a viability, T/C [11] of 17.8%. For the same compound, the viability, T/C [12] was 8.67%, the viability, T/C (second compound 0.316 µM, first compound 3.16 µM) was 12.4% and the viability, T/C (second compound 0.316 µM, first compound 10 µM) was 8.37%. It also gave a viability, T/C [13] of 0.31%, a viability, T/C [14] of 1.8% and a viability, T/C [15] of 1.32%. For the same compound, the viability, T/C [16] was 0.15%, the viability, T/C (second compound 1 µM, first compound 3.16 µM) was 1.54% and the viability, T/C (second compound 1 µM, first compound 10 µM) was 0.14%. It also gave a viability, T/C [17] of 0.28%, a viability, T/C [18] of 3.06% and a viability, T/C [19] of 0.36%. It also gave a viability, T/C [20] of 0.11%, a viability, T/C (second compound 3.16 µM, first compound 3.16 µM) of 0.47% and a viability, T/C (second compound 3.16 µM, first compound 10 µM) of 0.23%. For the same compound, the viability, T/C [21] was 0.13%, the viability, T/C [22] was 0.11% and the viability, T/C [23] was 1.27%. It also gave a viability, T/C [24] of 0.14%, a viability, T/C (second compound 10 µM, first compound 3.16 µM) of 0.18% and a viability, T/C (second compound 10 µM, first compound 10 µM) of 0.2%.
CCN1CCN(Cc2ccc(Nc3ncc(F)c(-c4cc(F)c5nc(C)n(C(C)C)c5c4)n3)nc2)CC1 + CN1CCN(c2cc(C(=O)Nc3cc4cc(-c5cnn(C)c5)ccc4cn3)ccn2)CC1 gave an IC50 (second compound 0.0316 µM) of over 1000 nM, an IC50 (second compound 0.1 µM) of over 1000 nM and an IC50 (second compound 0.316 µM) of under 3.16 nM. The IC50 (second compound 1 µM) was under 3.16 nM, the IC50 (second compound 3.16 µM) was under 3.16 nM and the IC50 (second compound 10 µM) was under 3.16 nM. It also gave a viability, T/C [25] of 82.8%, a viability, T/C [26] of 65% and a viability, T/C [1] of 82.2%. For the same compound, the viability, T/C [2] was 89%, the viability, T/C [3] was 72% and the viability, T/C [4] was 110%. For the same compound, the viability, T/C [27] was 85.4%, the viability, T/C [28] was 66.9% and the viability, T/C [5] was 54.9%. It also gave a viability, T/C [6] of 66.8%, a viability, T/C [7] of 62.5% and a viability, T/C [8] of 91%. It also gave a viability, T/C [29] of 22.7%, a viability, T/C [30] of 22.2% and a viability, T/C [9] of 25.9%. It also gave a viability, T/C [10] of 23.1%, a viability, T/C [11] of 43.9% and a viability, T/C [12] of 49.6%. The viability, T/C [31] was 0.58%, the viability, T/C [32] was 0.34% and the viability, T/C [13] was 0.43%. It also gave a viability, T/C [14] of 0.43%, a viability, T/C [15] of 0.48% and a viability, T/C [16] of 0.58%. For the same compound, the viability, T/C [33] was 0.3%, the viability, T/C [34] was 2.83% and the viability, T/C [17] was 0.23%. It also gave a viability, T/C [18] of 0.83%, a viability, T/C [19] of 0.56% and a viability, T/C [20] of 1%. It also gave a viability, T/C [35] of 0.7%, a viability, T/C [36] of 2.35% and a viability, T/C [21] of 0.16%. The viability, T/C [22] was 0.16%, the viability, T/C [23] was 0.18% and the viability, T/C [24] was 4.41%.
With COc1c(OCCCN2CCOCC2)ccc2c3n(c(=NC(=O)c4cnc(N)nc4)nc12)CCN3 + CN1CCN(c2cc(C(=O)Nc3cc4cc(-c5cnn(C)c5)ccc4cn3)ccn2)CC1 the IC50 (second compound 0.0316 µM) was 7.48 nM, the IC50 (second compound 0.1 µM) was 5.7 nM and the IC50 (second compound 0.316 µM) was under 3.16 nM. It also gave an IC50 (second compound 1 µM) of under 3.16 nM, an IC50 (second compound 3.16 µM) of under 3.16 nM and an IC50 (second compound 10 µM) of under 3.16 nM. It also gave a viability, T/C [25] of 66.7%, a viability, T/C [26] of 44.8% and a viability, T/C [1] of 21.2%. For the same compound, the viability, T/C [2] was 11.6%, the viability, T/C [3] was 5.06% and the viability, T/C [4] was 3.88%. For the same compound, the viability, T/C [27] was 57.3%, the viability, T/C [28] was 42.7% and the viability, T/C [5] was 23.6%. The viability, T/C [6] was 9.84%, the viability, T/C [7] was 5.07% and the viability, T/C [8] was 5.77%. For the same compound, the viability, T/C [29] was 19.1%, the viability, T/C [30] was 18.6% and the viability, T/C [9] was 10.7%. For the same compound, the viability, T/C [10] was 4.09%, the viability, T/C [11] was 3.08% and the viability, T/C [12] was 1.68%. The viability, T/C [31] was 0.4%, the viability, T/C [32] was 0.24% and the viability, T/C [13] was 0.24%. It also gave a viability, T/C [14] of 0.07%, a viability, T/C [15] of 0.34% and a viability, T/C [16] of 0.22%. The viability, T/C [33] was 0.17%, the viability, T/C [34] was 0.16% and the viability, T/C [17] was 0.17%. For the same compound, the viability, T/C [18] was 0.36%, the viability, T/C [19] was 0.16% and the viability, T/C [20] was 0.19%. For the same compound, the viability, T/C [35] was 0.07%, the viability, T/C [36] was 0.15% and the viability, T/C [21] was 1.27%. The viability, T/C [22] was 0.4%, the viability, T/C [23] was 0.14% and the viability, T/C [24] was 0.18%.
